Reference: PubChem BioAssay (NCI)
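Protocol summary: plate cells (96-well), add compound at 5 concentrations, incubate 48 h, interpolate endpoints linearly. TGI marks complete inhibition of growth.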

Experiments:
Experiment in all cases: NCI-60 cell line screen, 48 h
786-0 renal = system: 786-0 renal
A498 renal = system: A498 renal
A549 NSCLC = system: A549 NSCLC
ACHN renal = system: ACHN renal
BT-549 breast = system: BT-549 breast
CAKI-1 renal = system: CAKI-1 renal
CCRF-CEM leukemia = system: CCRF-CEM leukemia
COLO 205 colon = system: COLO 205 colon
DU-145 prostate = system: DU-145 prostate
EKVX NSCLC = system: EKVX NSCLC
HCC-2998 colon = system: HCC-2998 colon
HCT-116 colon = system: HCT-116 colon
HCT-15 colon = system: HCT-15 colon
HL-60(TB) leukemia = system: HL-60(TB) leukemia
HOP-62 NSCLC = system: HOP-62 NSCLC
HS 578T breast = system: HS 578T breast
HT29 colon = system: HT29 colon
IGROV1 ovarian = system: IGROV1 ovarian
K-562 leukemia = system: K-562 leukemia
KM12 colon = system: KM12 colon
LOX IMVI melanoma = system: LOX IMVI melanoma
M14 melanoma = system: M14 melanoma
MALME-3M melanoma = system: MALME-3M melanoma
MCF7 breast = system: MCF7 breast
MDA-MB-231 breast = system: MDA-MB-231 breast
MDA-MB-435 = system: MDA-MB-435
MDA-N = system: MDA-N
MOLT-4 leukemia = system: MOLT-4 leukemia
NCI-H226 lung = system: NCI-H226 lung
NCI-H23 lung = system: NCI-H23 lung
NCI-H460 lung = system: NCI-H460 lung
NCI-H522 lung = system: NCI-H522 lung
NCI/ADR-RES ovarian = system: NCI/ADR-RES ovarian
OVCAR-3 ovarian = system: OVCAR-3 ovarian
OVCAR-4 ovarian = system: OVCAR-4 ovarian
OVCAR-5 ovarian = system: OVCAR-5 ovarian
OVCAR-8 ovarian = system: OVCAR-8 ovarian
PC-3 prostate = system: PC-3 prostate
RPMI-8226 leukemia = system: RPMI-8226 leukemia
RXF 393 renal = system: RXF 393 renal
SF-268 CNS = system: SF-268 CNS
SF-295 CNS = system: SF-295 CNS
SF-539 CNS = system: SF-539 CNS
SK-MEL-2 melanoma = system: SK-MEL-2 melanoma
SK-MEL-28 melanoma = system: SK-MEL-28 melanoma
SK-OV-3 ovarian = system: SK-OV-3 ovarian
SN12C renal = system: SN12C renal
SNB-19 CNS = system: SNB-19 CNS
SNB-75 CNS = system: SNB-75 CNS
SW-620 colon = system: SW-620 colon
T-47D breast = system: T-47D breast
TK-10 renal = system: TK-10 renal
U251 CNS = system: U251 CNS
UACC-257 melanoma = system: UACC-257 melanoma
UACC-62 melanoma = system: UACC-62 melanoma
HOP-92 NSCLC = system: HOP-92 NSCLC
SK-MEL-5 melanoma = system: SK-MEL-5 melanoma
UO-31 renal = system: UO-31 renal

Measured: TGI

CCO/C(O)=C(/C(=N)N1CCOCC1)C(=O)Nc1cccc(Cl)c1
> 100 µM: 786-0 renal | A498 renal | A549 NSCLC | ACHN renal | BT-549 breast | CAKI-1 renal | CCRF-CEM leukemia | COLO 205 colon | DU-145 prostate | EKVX NSCLC | HCC-2998 colon | HCT-116 colon | HCT-15 colon | HL-60(TB) leukemia | HOP-62 NSCLC | HS 578T breast | HT29 colon | IGROV1 ovarian | K-562 leukemia | KM12 colon | LOX IMVI melanoma | M14 melanoma | MALME-3M melanoma | MCF7 breast | MDA-MB-231 breast | MDA-MB-435 | MDA-N | MOLT-4 leukemia | NCI-H226 lung | NCI-H23 lung | NCI-H460 lung | NCI-H522 lung | NCI/ADR-RES ovarian | OVCAR-3 ovarian | OVCAR-4 ovarian | OVCAR-5 ovarian | OVCAR-8 ovarian | PC-3 prostate | RPMI-8226 leukemia | RXF 393 renal | SF-268 CNS | SF-295 CNS | SF-539 CNS | SK-MEL-2 melanoma | SK-MEL-28 melanoma | SK-OV-3 ovarian | SN12C renal | SNB-19 CNS | SNB-75 CNS | SW-620 colon | T-47D breast | TK-10 renal | U251 CNS | UACC-257 melanoma | UACC-62 melanoma

COC(=O)C(C)(C)NC(=O)C(Cc1ccccc1)Nc1ncnc2c1ncn2-c1ccc(OC)cc1 (stereo not drawn)
96.7 µM: KM12 colon
69.1 µM: SNB-75 CNS
32 µM: MDA-MB-435
72.4 µM: MCF7 breast
46.6 µM: HT29 colon
54.1 µM: SW-620 colon
35.8 µM: CCRF-CEM leukemia
98.6 µM: BT-549 breast
79.8 µM: HS 578T breast
34.2 µM: NCI-H522 lung
73.5 µM: NCI-H460 lung
72.7 µM: A498 renal
45.6 µM: EKVX NSCLC
58.2 µM: HOP-92 NSCLC | T-47D breast
43.9 µM: MDA-N
> 100 µM: 786-0 renal | A549 NSCLC | ACHN renal | CAKI-1 renal | COLO 205 colon | DU-145 prostate | HCC-2998 colon | HCT-116 colon | HCT-15 colon | HOP-62 NSCLC | IGROV1 ovarian | K-562 leukemia | LOX IMVI melanoma | M14 melanoma | MDA-MB-231 breast | NCI-H226 lung | NCI-H23 lung | NCI/ADR-RES ovarian | OVCAR-3 ovarian | OVCAR-4 ovarian | OVCAR-5 ovarian | OVCAR-8 ovarian | PC-3 prostate | RPMI-8226 leukemia | SF-268 CNS | SF-295 CNS | SK-MEL-2 melanoma | SK-MEL-28 melanoma | SK-MEL-5 melanoma | SK-OV-3 ovarian | SN12C renal | SNB-19 CNS | TK-10 renal | U251 CNS | UACC-257 melanoma | UACC-62 melanoma | UO-31 renal
